From US11572590B2, “Methods for evaluating tumor cell spheroids using 3D microfluidic cell culture device” (Dana-Farber Cancer Institute, Inc., priority 2017, dated 2023)
Where two headings read alike, the source gives them in different places.

Experiments:
Assay in all cases: SelectScreen Kinase Profiling, single point inhibition and IC50 for off-target kinases
Format in all cases: biochemical
off-target kinases [1] = molecular target: off-target kinases (Homo sapiens, UniProt P05771); settings: PRKCB1 (PKC beta I), ZLYTE, ATP Km app
off-target kinases [2] = molecular target: off-target kinases (Homo sapiens, UniProt Q9H2G2); settings: SLK, LanthaScreen Binding
off-target kinases [3] = molecular target: off-target kinases (Homo sapiens, UniProt Q9H4B4); settings: PLK3, ATP Km app, ZLYTE
off-target kinases [4] = molecular target: off-target kinases (Homo sapiens, UniProt Q9HAZ1); settings: CLK4, LanthaScreen Binding
off-target kinases [5] = molecular target: off-target kinases (Homo sapiens, UniProt P36507); settings: MAP2K2 (MEK2)
off-target kinases [6] = molecular target: off-target kinases (Homo sapiens, UniProt Q9Y3S1); settings: WNK2, LanthaScreen Binding
off-target kinases [7] = molecular target: T1, off-target kinases (Homo sapiens, UniProt Q92630); settings: DYRK2, LanthaScreen Binding
T1 sequence (Q92630 1-601): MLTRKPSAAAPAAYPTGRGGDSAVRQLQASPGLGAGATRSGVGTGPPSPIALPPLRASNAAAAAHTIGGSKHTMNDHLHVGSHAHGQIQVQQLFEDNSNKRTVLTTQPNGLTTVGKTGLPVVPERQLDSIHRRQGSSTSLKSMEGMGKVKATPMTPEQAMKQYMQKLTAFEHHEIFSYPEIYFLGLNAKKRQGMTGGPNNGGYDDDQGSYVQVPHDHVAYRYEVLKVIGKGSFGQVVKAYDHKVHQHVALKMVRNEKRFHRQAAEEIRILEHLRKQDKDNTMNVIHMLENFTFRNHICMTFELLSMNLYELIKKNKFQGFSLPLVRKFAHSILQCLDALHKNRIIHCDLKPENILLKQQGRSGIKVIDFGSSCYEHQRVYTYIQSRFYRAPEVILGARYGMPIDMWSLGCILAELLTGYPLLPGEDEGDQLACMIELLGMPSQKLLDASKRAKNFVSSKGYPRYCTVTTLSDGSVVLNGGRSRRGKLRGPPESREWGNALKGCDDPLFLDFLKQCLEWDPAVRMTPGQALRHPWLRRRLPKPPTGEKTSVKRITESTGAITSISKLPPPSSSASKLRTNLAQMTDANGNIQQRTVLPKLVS

off-target kinases [8] = molecular target: off-target kinases (Homo sapiens, UniProt Q13153); settings: PAK1, ZLYTE, ATP Km app
off-target kinases [9] = molecular target: off-target kinases (Homo sapiens, UniProt P16591); settings: FER, ZLYTE, ATP Km app
off-target kinases [10] = molecular target: off-target kinases (Homo sapiens, UniProt Q00535)
Sequence of off-target kinases (Homo sapiens, UniProt Q00535) (Q00535 whole entry): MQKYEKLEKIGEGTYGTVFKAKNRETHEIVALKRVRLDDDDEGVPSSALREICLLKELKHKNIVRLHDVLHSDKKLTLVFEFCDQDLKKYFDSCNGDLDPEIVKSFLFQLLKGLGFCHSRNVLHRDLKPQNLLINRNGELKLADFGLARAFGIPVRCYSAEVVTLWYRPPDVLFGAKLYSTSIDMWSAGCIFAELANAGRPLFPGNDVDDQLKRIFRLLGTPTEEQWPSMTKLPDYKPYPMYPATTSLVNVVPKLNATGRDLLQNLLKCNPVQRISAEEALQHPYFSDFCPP

Sequence of off-target kinases (Homo sapiens, UniProt P05771) (P05771 whole entry): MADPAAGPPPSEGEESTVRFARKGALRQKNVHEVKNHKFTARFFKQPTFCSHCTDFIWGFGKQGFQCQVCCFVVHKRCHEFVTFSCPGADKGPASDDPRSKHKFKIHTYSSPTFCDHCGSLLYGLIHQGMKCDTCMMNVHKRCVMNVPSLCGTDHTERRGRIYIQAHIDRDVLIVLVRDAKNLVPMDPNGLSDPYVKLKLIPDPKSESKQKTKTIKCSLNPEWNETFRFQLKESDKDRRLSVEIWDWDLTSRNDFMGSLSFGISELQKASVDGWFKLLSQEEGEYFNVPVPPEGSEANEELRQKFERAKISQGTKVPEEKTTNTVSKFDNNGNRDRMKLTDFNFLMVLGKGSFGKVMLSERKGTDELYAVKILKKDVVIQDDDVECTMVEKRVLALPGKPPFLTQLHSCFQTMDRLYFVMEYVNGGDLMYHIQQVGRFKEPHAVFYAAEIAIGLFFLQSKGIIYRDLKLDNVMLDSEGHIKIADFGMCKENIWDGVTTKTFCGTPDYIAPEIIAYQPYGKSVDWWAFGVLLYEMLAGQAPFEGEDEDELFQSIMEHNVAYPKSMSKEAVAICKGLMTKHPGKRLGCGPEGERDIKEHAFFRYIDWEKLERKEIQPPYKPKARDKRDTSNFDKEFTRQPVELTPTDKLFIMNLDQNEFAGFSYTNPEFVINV
Sequence of off-target kinases (Homo sapiens, UniProt P36507) (P36507 whole entry): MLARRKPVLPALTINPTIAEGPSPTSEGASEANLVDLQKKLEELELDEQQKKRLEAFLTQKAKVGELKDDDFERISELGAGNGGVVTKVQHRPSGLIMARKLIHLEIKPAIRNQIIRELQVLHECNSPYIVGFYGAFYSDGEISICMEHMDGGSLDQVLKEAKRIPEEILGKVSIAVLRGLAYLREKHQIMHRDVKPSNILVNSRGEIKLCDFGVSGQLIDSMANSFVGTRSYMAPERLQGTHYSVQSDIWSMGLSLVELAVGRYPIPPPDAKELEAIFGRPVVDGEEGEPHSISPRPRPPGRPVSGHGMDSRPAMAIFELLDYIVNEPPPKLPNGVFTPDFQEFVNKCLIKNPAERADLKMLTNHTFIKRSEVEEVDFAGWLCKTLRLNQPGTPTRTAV
Sequence of off-target kinases (Homo sapiens, UniProt Q9H4B4) (Q9H4B4 whole entry): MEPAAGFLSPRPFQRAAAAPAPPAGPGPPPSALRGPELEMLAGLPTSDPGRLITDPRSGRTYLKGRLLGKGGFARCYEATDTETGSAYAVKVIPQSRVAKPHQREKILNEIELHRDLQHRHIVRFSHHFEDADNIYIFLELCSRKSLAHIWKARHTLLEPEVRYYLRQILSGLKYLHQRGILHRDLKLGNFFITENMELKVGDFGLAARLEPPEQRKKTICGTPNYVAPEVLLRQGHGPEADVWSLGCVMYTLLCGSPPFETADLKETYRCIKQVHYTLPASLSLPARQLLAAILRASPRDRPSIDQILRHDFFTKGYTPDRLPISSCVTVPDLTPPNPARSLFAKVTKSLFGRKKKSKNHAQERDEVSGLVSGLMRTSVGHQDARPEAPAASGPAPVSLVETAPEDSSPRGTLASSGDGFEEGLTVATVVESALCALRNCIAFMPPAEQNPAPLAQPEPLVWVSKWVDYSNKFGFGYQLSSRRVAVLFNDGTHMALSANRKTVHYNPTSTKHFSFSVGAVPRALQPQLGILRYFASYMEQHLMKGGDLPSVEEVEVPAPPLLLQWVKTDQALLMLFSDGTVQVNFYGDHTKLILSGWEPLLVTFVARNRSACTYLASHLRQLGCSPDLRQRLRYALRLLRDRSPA
Sequence of off-target kinases (Homo sapiens, UniProt Q13153) (Q13153 whole entry): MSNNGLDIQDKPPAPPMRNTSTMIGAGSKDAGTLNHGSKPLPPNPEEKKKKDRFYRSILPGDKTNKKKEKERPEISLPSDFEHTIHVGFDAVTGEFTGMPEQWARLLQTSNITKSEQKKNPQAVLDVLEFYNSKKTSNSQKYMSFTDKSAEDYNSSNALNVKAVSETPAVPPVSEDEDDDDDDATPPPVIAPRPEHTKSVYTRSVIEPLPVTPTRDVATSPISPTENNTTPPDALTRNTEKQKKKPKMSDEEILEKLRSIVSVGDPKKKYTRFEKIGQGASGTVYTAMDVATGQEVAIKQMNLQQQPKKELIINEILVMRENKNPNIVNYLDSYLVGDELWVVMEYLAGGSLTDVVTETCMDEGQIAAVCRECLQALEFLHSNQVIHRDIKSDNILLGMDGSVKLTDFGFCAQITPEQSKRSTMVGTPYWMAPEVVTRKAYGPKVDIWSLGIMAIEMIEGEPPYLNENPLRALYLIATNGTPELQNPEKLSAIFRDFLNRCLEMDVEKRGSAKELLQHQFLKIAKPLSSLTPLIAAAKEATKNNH
Sequence of off-target kinases (Homo sapiens, UniProt Q9H2G2) (Q9H2G2 whole entry): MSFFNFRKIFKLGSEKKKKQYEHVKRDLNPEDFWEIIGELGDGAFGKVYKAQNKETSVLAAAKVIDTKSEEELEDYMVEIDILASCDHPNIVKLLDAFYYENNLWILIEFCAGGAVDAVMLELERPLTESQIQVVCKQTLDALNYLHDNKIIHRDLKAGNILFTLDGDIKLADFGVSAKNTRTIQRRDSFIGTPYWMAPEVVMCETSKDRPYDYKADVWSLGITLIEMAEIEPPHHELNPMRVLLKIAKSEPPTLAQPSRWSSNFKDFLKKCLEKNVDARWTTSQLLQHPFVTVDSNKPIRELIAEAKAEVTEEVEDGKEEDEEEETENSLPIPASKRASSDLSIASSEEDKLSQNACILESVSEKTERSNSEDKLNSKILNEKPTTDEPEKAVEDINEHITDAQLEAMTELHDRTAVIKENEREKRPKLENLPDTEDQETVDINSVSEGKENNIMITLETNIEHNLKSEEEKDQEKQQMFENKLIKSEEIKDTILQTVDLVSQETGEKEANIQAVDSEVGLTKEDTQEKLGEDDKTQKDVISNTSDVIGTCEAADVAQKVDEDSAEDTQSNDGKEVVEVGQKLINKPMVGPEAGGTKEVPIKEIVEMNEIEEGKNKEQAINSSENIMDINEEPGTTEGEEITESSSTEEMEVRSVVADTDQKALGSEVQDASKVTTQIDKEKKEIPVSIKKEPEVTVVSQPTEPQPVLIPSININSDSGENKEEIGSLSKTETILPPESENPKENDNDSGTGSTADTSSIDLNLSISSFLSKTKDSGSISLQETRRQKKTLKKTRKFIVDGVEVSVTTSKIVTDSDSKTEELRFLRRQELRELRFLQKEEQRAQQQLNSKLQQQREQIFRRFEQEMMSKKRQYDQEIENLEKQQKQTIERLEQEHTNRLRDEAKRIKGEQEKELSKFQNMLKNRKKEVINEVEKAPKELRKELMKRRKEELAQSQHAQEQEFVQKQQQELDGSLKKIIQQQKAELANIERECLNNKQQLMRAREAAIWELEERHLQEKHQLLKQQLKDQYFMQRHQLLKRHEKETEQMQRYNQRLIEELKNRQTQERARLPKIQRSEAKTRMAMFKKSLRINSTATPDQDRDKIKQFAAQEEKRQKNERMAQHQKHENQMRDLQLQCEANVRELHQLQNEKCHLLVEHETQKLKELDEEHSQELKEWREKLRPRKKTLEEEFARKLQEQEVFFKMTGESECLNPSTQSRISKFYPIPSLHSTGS
Sequence of off-target kinases (Homo sapiens, UniProt P16591) (P16591 whole entry): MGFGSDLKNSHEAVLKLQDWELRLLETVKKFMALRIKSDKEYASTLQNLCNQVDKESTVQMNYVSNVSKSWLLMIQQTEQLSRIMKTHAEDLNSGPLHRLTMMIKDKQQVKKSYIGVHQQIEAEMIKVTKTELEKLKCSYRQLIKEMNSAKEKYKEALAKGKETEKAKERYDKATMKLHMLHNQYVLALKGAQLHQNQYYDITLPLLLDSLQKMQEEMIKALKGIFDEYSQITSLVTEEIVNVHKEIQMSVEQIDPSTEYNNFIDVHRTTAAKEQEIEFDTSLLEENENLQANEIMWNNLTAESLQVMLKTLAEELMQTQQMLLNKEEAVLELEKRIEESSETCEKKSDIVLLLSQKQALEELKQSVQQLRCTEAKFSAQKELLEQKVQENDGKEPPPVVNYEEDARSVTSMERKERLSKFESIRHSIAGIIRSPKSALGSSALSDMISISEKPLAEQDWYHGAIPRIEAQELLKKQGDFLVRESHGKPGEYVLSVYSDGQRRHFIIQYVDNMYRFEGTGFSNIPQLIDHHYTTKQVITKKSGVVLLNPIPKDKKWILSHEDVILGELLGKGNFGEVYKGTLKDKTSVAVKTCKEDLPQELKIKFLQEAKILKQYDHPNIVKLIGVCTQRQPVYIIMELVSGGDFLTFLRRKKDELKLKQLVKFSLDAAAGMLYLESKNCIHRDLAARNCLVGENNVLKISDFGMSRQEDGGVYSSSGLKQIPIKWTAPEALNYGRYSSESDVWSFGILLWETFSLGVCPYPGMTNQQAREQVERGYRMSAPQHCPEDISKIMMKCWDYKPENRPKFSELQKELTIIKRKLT

Question: Which inhibition (off-target kinases [1]; read-out: % Inhibition 1) does the source give for `N#Cc1cc(-c2ncnc(Nc3ccc(N4CCN(C5COC5)CC4)cc3)n2)ccc1OC1CCOCC1` [Compound 1, 5-(4-((4-(4-(oxetan-3-yl)piperazin-1-yl)phenyl)amino)-1,3,5-triazin-2-yl)-2-((tetrahydro-2H-pyran-4-yl)oxy)benzonitrile] here?
Answer: 5%

Question: What about the inhibition (off-target kinases [1]; read-out: % Inhibition 2) of the same compound?
Answer: 3%

Question: What about the inhibition (off-target kinases [1]; read-out: % Inhibition Avg) of the same compound?
Answer: 4%

Question: What about the inhibition (off-target kinases [2]; read-out: % Inhibition 1) of the same compound?
Answer: 29%

Question: And the inhibition (off-target kinases [2]; read-out: % Inhibition 2)?
Answer: 32%

Question: And the inhibition (off-target kinases [2]; read-out: % Inhibition Avg)?
Answer: 30%

Question: What about the inhibition (off-target kinases [3]; read-out: % Inhibition 1) of the same compound?
Answer: 80%

Question: And the inhibition (off-target kinases [3]; read-out: % Inhibition 2)?
Answer: 76%

Question: And the inhibition (off-target kinases [3]; read-out: % Inhibition Avg)?
Answer: 78%

Question: What about the inhibition (off-target kinases [4]; read-out: % Inhibition 1) of the same compound?
Answer: 87%

Question: And the inhibition (off-target kinases [4]; read-out: % Inhibition 2)?
Answer: 89%

Question: And the inhibition (off-target kinases [4]; read-out: % Inhibition Avg)?
Answer: 88%

Question: What about the inhibition (off-target kinases [5]; LanthaScreen Binding, read-out: % Inhibition 1) of the same compound?
Answer: 5%

Question: And the inhibition (off-target kinases [5]; LanthaScreen Binding, read-out: % Inhibition 2)?
Answer: 5%

Question: What about the inhibition (off-target kinases [5]; LanthaScreen Binding, read-out: % Inhibition Avg) of the same compound?
Answer: 5%

Question: What about the inhibition (off-target kinases [5]; ZLYTE, ATP 100, read-out: % Inhibition 1) of the same compound?
Answer: 13%

Question: And the inhibition (off-target kinases [5]; ZLYTE, ATP 100, read-out: % Inhibition 2)?
Answer: 2%

Question: And the inhibition (off-target kinases [5]; ZLYTE, ATP 100, read-out: % Inhibition Avg)?
Answer: 8%

Question: And the inhibition (off-target kinases [6]; read-out: % Inhibition 1)?
Answer: -4%

Question: And the inhibition (off-target kinases [6]; read-out: % Inhibition 2)?
Answer: 5%

Question: And the inhibition (off-target kinases [6]; read-out: % Inhibition Avg)?
Answer: 1%

Question: And the inhibition (off-target kinases [7]; read-out: % Inhibition 1)?
Answer: 54%

Question: And the inhibition (off-target kinases [7]; read-out: % Inhibition 2)?
Answer: 53%

Question: What about the inhibition (off-target kinases [7]; read-out: % Inhibition Avg) of the same compound?
Answer: 54%

Question: What about the inhibition (off-target kinases [8]; read-out: % Inhibition 1) of the same compound?
Answer: 8%

Question: What about the inhibition (off-target kinases [8]; read-out: % Inhibition 2) of the same compound?
Answer: 8%

Question: And the inhibition (off-target kinases [8]; read-out: % Inhibition Avg)?
Answer: 8%

Question: What about the inhibition (off-target kinases [9]; read-out: % Inhibition 1) of the same compound?
Answer: 4%

Question: And the inhibition (off-target kinases [9]; read-out: % Inhibition 2)?
Answer: 9%

Question: And the inhibition (off-target kinases [9]; read-out: % Inhibition Avg)?
Answer: 7%

Question: And the inhibition (off-target kinases [10]; CDK5 (Inactive), LanthaScreen Binding, read-out: % Inhibition 1)?
Answer: 1%

Question: What about the inhibition (off-target kinases [10]; CDK5 (Inactive), LanthaScreen Binding, read-out: % Inhibition 2) of the same compound?
Answer: -2%

Question: And the inhibition (off-target kinases [10]; CDK5/p25, ZLYTE, ATP Km app, read-out: % Inhibition 1)?
Answer: 3%

Question: What about the inhibition (off-target kinases [10]; CDK5/p25, ZLYTE, ATP Km app, read-out: % Inhibition 2) of the same compound?
Answer: 1%

Question: What about the inhibition (off-target kinases [10]; CDK5/p25, ZLYTE, ATP Km app, read-out: % Inhibition Avg) of the same compound?
Answer: 2%

Question: And the inhibition (off-target kinases [10]; CDK5/p35, ZLYTE, ATP Km app, read-out: % Inhibition 1)?
Answer: 7%

Question: What about the inhibition (off-target kinases [10]; CDK5/p35, ZLYTE, ATP Km app, read-out: % Inhibition 2) of the same compound?
Answer: 2%

Question: What about the inhibition (off-target kinases [10]; CDK5/p35, ZLYTE, ATP Km app, read-out: % Inhibition Avg) of the same compound?
Answer: 5%

Question: What about the inhibition (off-target kinases [10]; read-out: % Inhibition Avg) of the same compound?
Answer: -1%
